According to ChEMBL document CHEMBL4665642, “Anticancer profile of newly synthesized BRAF inhibitors possess 5-(pyrimidin-4-yl)imidazo[2,1-b]thiazole scaffold” (Bioorg Med Chem, 2019):

Tests used:
Type in all cases: functional
Conditions in all cases: read-out: Activity
[1] = tested on: HCT-15; assay: Cytotoxicity against human HCT-15 cells assessed as cell viability at 10 uM incubated for 48 hrs by sulforhodamine B assay relative to control
[2] = tested on: SK-OV-3; assay: Cytotoxicity against human SK-OV-3 cells assessed as cell viability at 10 uM incubated for 48 hrs by sulforhodamine B assay relative to control
[3] = tested on: HL-60(TB); assay: Cytotoxicity against human HL-60(TB) cells assessed as cell viability at 10 uM incubated for 48 hrs by sulforhodamine B assay relative to control
[4] = tested on: PC-3; assay: Cytotoxicity against human PC-3 cells assessed as cell viability at 10 uM incubated for 48 hrs by sulforhodamine B assay relative to control
[5] = tested on: OVCAR-4; assay: Cytotoxicity against human OVCAR-4 cells assessed as cell viability at 10 uM incubated for 48 hrs by sulforhodamine B assay relative to control
[6] = tested on: SK-MEL-28; assay: Cytotoxicity against human SK-MEL-28 cells assessed as cell viability at 10 uM incubated for 48 hrs by sulforhodamine B assay relative to control
[7] = tested on: RPMI-8226; assay: Cytotoxicity against human RPMI-8226 cells assessed as cell viability at 10 uM incubated for 48 hrs by sulforhodamine B assay relative to control
[8] = tested on: NCI-H460; assay: Cytotoxicity against human NCI-H460 cells assessed as cell viability at 10 uM incubated for 48 hrs by sulforhodamine B assay relative to control
[9] = tested on: K562; assay: Cytotoxicity against human K562 cells assessed as cell viability at 10 uM incubated for 48 hrs by sulforhodamine B assay relative to control
[10] = tested on: ACHN; assay: Cytotoxicity against human ACHN cells assessed as cell viability at 10 uM incubated for 48 hrs by sulforhodamine B assay relative to control
[11] = tested on: OVCAR-8; assay: Cytotoxicity against human OVCAR-8 cells assessed as cell viability at 10 uM incubated for 48 hrs by sulforhodamine B assay relative to control
[12] = tested on: DU-145; assay: Cytotoxicity against human DU-145 cells assessed as cell viability at 10 uM incubated for 48 hrs by sulforhodamine B assay relative to control
[13] = tested on: NCI-H322M; assay: Cytotoxicity against human NCI-H322M cells assessed as cell viability at 10 uM incubated for 48 hrs by sulforhodamine B assay relative to control
[14] = tested on: NCI-H23; assay: Cytotoxicity against human NCI-H23 cells assessed as cell viability at 10 uM incubated for 48 hrs by sulforhodamine B assay relative to control
[15] = tested on: SNB-75; assay: Cytotoxicity against human SNB-75 cells assessed as cell viability at 10 uM incubated for 48 hrs by sulforhodamine B assay relative to control
[16] = tested on: NCI/ADR-RES; assay: Cytotoxicity against human NCI/ADR-RES cells assessed as cell viability at 10 uM incubated for 48 hrs by sulforhodamine B assay relative to control
[17] = tested on: M14; assay: Cytotoxicity against human M14 cells assessed as cell viability at 10 uM incubated for 48 hrs by sulforhodamine B assay relative to control
[18] = tested on: SR; assay: Cytotoxicity against human SR cells assessed as cell viability at 10 uM incubated for 48 hrs by sulforhodamine B assay relative to control
[19] = tested on: SN12C; assay: Cytotoxicity against human SN12C cells assessed as cell viability at 10 uM incubated for 48 hrs by sulforhodamine B assay relative to control
[20] = tested on: MDA-MB-435; assay: Cytotoxicity against human MDA-MB-435 cells assessed as cell viability at 10 uM incubated for 48 hrs by sulforhodamine B assay relative to control
[21] = tested on: IGROV-1; assay: Cytotoxicity against human IGROV-1 cells assessed as cell viability at 10 uM incubated for 48 hrs by sulforhodamine B assay relative to control
[22] = tested on: HOP-62; assay: Cytotoxicity against human HOP-62 cells assessed as cell viability at 10 uM incubated for 48 hrs by sulforhodamine B assay relative to control
[23] = tested on: HOP-92; assay: Cytotoxicity against human HOP-92 cells assessed as cell viability at 10 uM incubated for 48 hrs by sulforhodamine B assay relative to control
[24] = tested on: 786-0; assay: Cytotoxicity against human 786-0 cells assessed as cell viability at 10 uM incubated for 48 hrs by sulforhodamine B assay relative to control
[25] = tested on: NCI-H226; assay: Cytotoxicity against human NCI-H226 cells assessed as cell viability at 10 uM incubated for 48 hrs by sulforhodamine B assay relative to control
[26] = tested on: CCRF-CEM; assay: Cytotoxicity against human CCRF-CEM cells assessed as cell viability at 10 uM incubated for 48 hrs by sulforhodamine B assay relative to control
[27] = tested on: MDA-MB-231; assay: Cytotoxicity against human MDA-MB-231 cells assessed as cell viability at 10 uM incubated for 48 hrs by sulforhodamine B assay relative to control
[28] = tested on: SF-268; assay: Cytotoxicity against human SF-268 cells assessed as cell viability at 10 uM incubated for 48 hrs by sulforhodamine B assay relative to control
[29] = tested on: SNB-19; assay: Cytotoxicity against human SNB-19 cells assessed as cell viability at 10 uM incubated for 48 hrs by sulforhodamine B assay relative to control
[30] = tested on: BT-549; assay: Cytotoxicity against human BT-549 cells assessed as cell viability at 10 uM incubated for 48 hrs by sulforhodamine B assay relative to control
[31] = tested on: KM12; assay: Cytotoxicity against human KM12 cells assessed as cell viability at 10 uM incubated for 48 hrs by sulforhodamine B assay relative to control
[32] = tested on: TK-10; assay: Cytotoxicity against human TK-10 cells assessed as cell viability at 10 uM incubated for 48 hrs by sulforhodamine B assay relative to control
[33] = tested on: LOX IMVI; assay: Cytotoxicity against human LOX IMVI cells assessed as cell viability at 10 uM incubated for 48 hrs by sulforhodamine B assay relative to control
[34] = tested on: A549; assay: Cytotoxicity against human A549 cells assessed as cell viability at 10 uM incubated for 48 hrs by sulforhodamine B assay relative to control
[35] = tested on: HCT-29; assay: Cytotoxicity against human […] cells assessed as cell viability at 10 uM incubated for 48 hrs by sulforhodamine B assay relative to control
[36] = tested on: CAKI-1; assay: Cytotoxicity against human CAKI-1 cells assessed as cell viability at 10 uM incubated for 48 hrs by sulforhodamine B assay relative to control
[37] = tested on: MDA-MB-468; assay: Cytotoxicity against human MDA-MB-468 cells assessed as cell viability at 10 uM incubated for 48 hrs by sulforhodamine B assay relative to control
[38] = tested on: COLO 205; assay: Cytotoxicity against human COLO 205 cells assessed as cell viability at 10 uM incubated for 48 hrs by sulforhodamine B assay relative to control
[39] = tested on: MCF7; assay: Cytotoxicity against human MCF7 cells assessed as cell viability at 10 uM incubated for 48 hrs by sulforhodamine B assay relative to control
[40] = tested on: SF-295; assay: Cytotoxicity against human SF-295 cells assessed as cell viability at 10 uM incubated for 48 hrs by sulforhodamine B assay relative to control
[41] = tested on: OVCAR-3; assay: Cytotoxicity against human OVCAR-3 cells assessed as cell viability at 10 uM incubated for 48 hrs by sulforhodamine B assay relative to control

O=S(=O)(NCCCNc1nccc(-c2c(-c3cccc(F)c3)nc3sccn23)n1)c1ccccc1
viability at 10 µM [1]: 37.8%
viability at 10 µM [2]: 71.5%
viability at 10 µM [3]: 101%
viability at 10 µM [4]: 53.5%
viability at 10 µM [5]: 54.8%
viability at 10 µM [6]: 83.4%
viability at 10 µM [7]: 48%
viability at 10 µM [8]: 65.3%
viability at 10 µM [9]: 34.3%
viability at 10 µM [10]: 54.1%
viability at 10 µM [11]: 43%
viability at 10 µM [12]: 72.7%
viability at 10 µM [13]: 89.3%
viability at 10 µM [14]: 76.9%
viability at 10 µM [15]: 102%
viability at 10 µM [16]: 53.4%
viability at 10 µM [17]: 50.5%
viability at 10 µM [18]: 82.2%
viability at 10 µM [19]: 58.2%
viability at 10 µM [20]: 41.7%
viability at 10 µM [21]: 35.2%
viability at 10 µM [22]: 98.9%
viability at 10 µM [23]: 80.2%
viability at 10 µM [24]: 74%
viability at 10 µM [25]: 43.2%
viability at 10 µM [26]: 44.1%
viability at 10 µM [27]: 70.8%
viability at 10 µM [28]: 71.5%
viability at 10 µM [29]: 93.5%
viability at 10 µM [30]: 71.1%
viability at 10 µM [31]: 62.1%
viability at 10 µM [32]: 92.8%
viability at 10 µM [33]: 50.3%
viability at 10 µM [34]: 63%
viability at 10 µM [35]: 32.9%
viability at 10 µM [36]: 56.4%
viability at 10 µM [37]: 62.7%
viability at 10 µM [38]: 29%
viability at 10 µM [39]: 50.8%
viability at 10 µM [40]: 79.9%
viability at 10 µM [41]: 74.9%

O=S(=O)(NCCNc1nccc(-c2c(-c3cccc(F)c3)nc3sccn23)n1)c1ccc(C(F)(F)F)cc1
viability at 10 µM [1]: 72.6%
viability at 10 µM [2]: 71.8%
viability at 10 µM [3]: 121%
viability at 10 µM [4]: 57%
viability at 10 µM [5]: 85.4%
viability at 10 µM [6]: 114%
viability at 10 µM [7]: 83.8%
viability at 10 µM [8]: 94.7%
viability at 10 µM [9]: 73.1%
viability at 10 µM [10]: 82.2%
viability at 10 µM [11]: 84.1%
viability at 10 µM [12]: 89.2%
viability at 10 µM [13]: 96.5%
viability at 10 µM [14]: 86.8%
viability at 10 µM [15]: 85%
viability at 10 µM [16]: 88.8%
viability at 10 µM [17]: 91.4%
viability at 10 µM [18]: 89.4%
viability at 10 µM [19]: 89.7%
viability at 10 µM [20]: 71.2%
viability at 10 µM [21]: 56.6%
viability at 10 µM [22]: 102%
viability at 10 µM [23]: 64%
viability at 10 µM [24]: 82.1%
viability at 10 µM [25]: 82.8%
viability at 10 µM [26]: 80.6%
viability at 10 µM [27]: 92.8%
viability at 10 µM [28]: 77.8%
viability at 10 µM [29]: 94.8%
viability at 10 µM [30]: 79.3%
viability at 10 µM [31]: 80.6%
viability at 10 µM [32]: 98.2%
viability at 10 µM [33]: 88.9%
viability at 10 µM [34]: 72.4%
viability at 10 µM [35]: 62.8%
viability at 10 µM [36]: 70.6%
viability at 10 µM [37]: 71.3%
viability at 10 µM [38]: 68.3%
viability at 10 µM [39]: 59.3%
viability at 10 µM [40]: 107%
viability at 10 µM [41]: 92.4%
